Inhibition data for six compounds are collected here from ChEMBL document CHEMBL1125693, “Synthesis and biological activity of new halo-steroidal antiestrogens” (J Med Chem, 1991).

For assay [1], the target named is T1, Estrogen receptor (Mus musculus) (UniProt O08537+P19785). Nature of the assay: Inhibition of estradiol-induced uterine weight gain in ovariectomized BALB/c mice at 20 ug dose twice daily. It counts as functional.
Assay [2] addresses T1, Estrogen receptor (Mus musculus). Nature of the assay: Inhibition of estradiol-induced uterine weight gain in ovariectomized BALB/c mice at 3 ug dose twice daily. It counts as functional.

T1 sequence (O08537 whole entry, looked up): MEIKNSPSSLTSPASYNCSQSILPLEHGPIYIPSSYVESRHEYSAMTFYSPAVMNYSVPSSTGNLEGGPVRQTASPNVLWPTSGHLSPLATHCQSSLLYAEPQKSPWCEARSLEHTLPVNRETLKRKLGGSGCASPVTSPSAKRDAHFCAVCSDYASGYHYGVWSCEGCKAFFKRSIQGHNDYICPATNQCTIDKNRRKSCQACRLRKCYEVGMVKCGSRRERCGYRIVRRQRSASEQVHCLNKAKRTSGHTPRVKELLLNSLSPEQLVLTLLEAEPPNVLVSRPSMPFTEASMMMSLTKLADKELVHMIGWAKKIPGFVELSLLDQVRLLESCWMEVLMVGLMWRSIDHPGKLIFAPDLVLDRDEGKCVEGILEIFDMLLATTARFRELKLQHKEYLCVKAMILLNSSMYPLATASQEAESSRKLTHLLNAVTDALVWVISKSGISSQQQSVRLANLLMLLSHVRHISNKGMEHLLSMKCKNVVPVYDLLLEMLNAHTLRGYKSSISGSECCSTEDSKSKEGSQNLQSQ
T1 sequence (P19785 whole entry, looked up): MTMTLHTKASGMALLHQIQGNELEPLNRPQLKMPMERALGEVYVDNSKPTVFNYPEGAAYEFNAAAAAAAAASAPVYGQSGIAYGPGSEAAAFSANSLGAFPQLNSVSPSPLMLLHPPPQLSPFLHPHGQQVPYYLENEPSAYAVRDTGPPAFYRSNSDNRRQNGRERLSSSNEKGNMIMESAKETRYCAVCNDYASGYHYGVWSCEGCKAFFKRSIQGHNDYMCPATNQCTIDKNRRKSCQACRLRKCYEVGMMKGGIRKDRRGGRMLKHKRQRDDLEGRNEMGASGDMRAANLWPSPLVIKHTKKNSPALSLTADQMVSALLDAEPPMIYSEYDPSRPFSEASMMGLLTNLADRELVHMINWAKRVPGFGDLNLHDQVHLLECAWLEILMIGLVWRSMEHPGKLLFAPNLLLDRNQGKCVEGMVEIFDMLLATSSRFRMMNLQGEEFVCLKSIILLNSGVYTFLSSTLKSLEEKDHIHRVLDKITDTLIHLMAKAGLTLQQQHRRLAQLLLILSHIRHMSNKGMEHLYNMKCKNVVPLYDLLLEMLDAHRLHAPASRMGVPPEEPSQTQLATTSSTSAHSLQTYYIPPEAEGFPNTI

For the compound `CCCCN(C)C(=O)CCCCCCCCCC[C@@H]1Cc2cc(O)ccc2[C@H]2CC[C@]3(C)[C@@H](O)[C@H](Br)C[C@H]3[C@H]12`, the results for the inhibition in assay [1] and in assay [2] were 79% and 52%, respectively.

In assay [2], `CCCCN(C)C(=O)CCCCCCCCCC[C@@H]1Cc2cc(O)ccc2[C@H]2CC[C@]3(C)[C@H](O)[C@H](Cl)C[C@H]3[C@H]12` gave an inhibition of 35%.

In turn, `CCCCN(C)C(=O)CCCCCCCCCC[C@@H]1Cc2cc(O)ccc2[C@H]2CC[C@]3(C)[C@@H](O)[C@H](Cl)C[C@H]3[C@H]12` returned an inhibition in assay [2] of 74%.

In assay [2], `CCCCN(C)C(=O)CCCCCCCCCC[C@@H]1Cc2cc(O)ccc2[C@H]2CC[C@]3(C)[C@@H](O)[C@H](I)C[C@H]3[C@H]12` had an inhibition of 63%.

For `CCCCN(C)C(=O)CCCCCCCCCC[C@@H]1Cc2cc(O)ccc2[C@H]2CC[C@]3(C)[C@H](O)[C@H](Br)C[C@H]3[C@H]12`, the inhibition is 78% in assay [1] and 60% in assay [2].

`CCCCN(C)C(=O)CCCCCCCCCC[C@@H]1Cc2cc(O)ccc2[C@H]2CC[C@]3(C)[C@@H](O)CC[C@H]3[C@H]12`: the inhibition in assay [2] is 40%.

The term inhibition denotes how much of the control response was suppressed.
